Source: patent US20030083385A1, “Use of benzenesulfonyl (thioureas or ure as) for treating of septic shock or gene ralized inflammatory syndrome” (priority 2001, published 2003)
Structures can show the parent of a compound that is named as a salt.

Legend:
[1] = system: anesthetized pigs given lipopolysaccharide (LPS) as a bolus; experiment: Endotoxin (LPS) model in anesthetized pigs, LPS bolus; type: in vivo, pig; details: LPS 1 μg/kg bolus, n=5, LPS raised pressure from 30.6±0.7 to 67.2±6.0 mm Hg, compound 5 mg/kg intravenously, p<0.01
Text: (§1) The suitability of a compound of formula I for treating pathological changes in blood pressure associated with septic shock or occurring in the generalized inflammatory syndrome (SIRS) state can be established, for example, in the pharmacological model in the pig that is described further below (endotoxin model, synonym: LPS model (LPS=lipopolysaccharide)). The effect can also be examined, for example, in rats, mice, cats, guinea pigs, rabbits, dogs or monkeys.
In another experimental approach performed on anesthetized pigs, 1 μg/kg of LPS was administered as a bolus (n=5). This led, within 15-20 min, to a dangerous increase in the systolic pulmonary arterial pressure from 30.6±0.7 mm Hg to 67.2±6.0 mm Hg.

[2] = system: anesthetized pigs infused continuously with lipopolysaccharide (LPS); experiment: Endotoxin (LPS) model in anesthetized pigs, continuous LPS infusion; type: in vivo, pig
Text: as §1
Anesthetized pigs were infused continuously with lipopolysaccharide (LPS) (0.15 μg/kg/h; n=7). This led to a decrease in the peripheral resistance. After 3.9 hours, 1-(5-(2-(5-chloro-2-methoxybenzamido)ethyl)-2-(2-methoxyethoxy)phenyl-sulfonyl)-3-methylthiourea sodium salt was administered at a dose of 5-10 mg/kg (intravenously; aqueous solution). […] The peripheral resistance, which under the effect of the endotoxin had fallen to 60.8±4.1% of the starting value that had been present prior to administering the endotoxin, rose to 80.8±5.1% of the starting value that had been present prior to administering the endotoxin (p<0.0001).

## CNC(=S)NS(=O)(=O)c1cc(CCNC(=O)c2cc(Cl)ccc2OC)ccc1OCCOC [1-(5-(2-(5-chloro-2-methoxybenzamido)ethyl)-2-(2-methoxyethoxy)phenyl-sulfonyl)-3-methylthiourea sodium salt]
[1]
  systolic pulmonary arterial pressure after administration: 46.6±4.0 mm Hg
[2]; LPS 0.15 μg/kg/h continuous infusion, n=7, compound 5-10 mg/kg intravenously (aqueous solution) after 3.9 hours, p<0.001
  rise of peripheral mean arterial blood pressure: 19.6±3.2 mm Hg
[2]; LPS 0.15 μg/kg/h continuous infusion, n=7, compound 5-10 mg/kg intravenously after 3.9 hours, had fallen to 60.8±4.1% under endotoxin, p<0.0001
  peripheral resistance after administration: 80.8±5.1 % of the starting value
[2]; LPS model, infusion, total dose 5-10 mg/kg, seen already after a dose of 1-2.5 mg/kg had been infused
  effect when administered as an infusion: marked improvement
